Experimental findings from patent publication US5919771A, “Urea and thiourea derivatives of glycopeptides” (Eli Lilly and Company, priority 1998, dated 1999) are described below.

What all share (assay type): cell-based
Test [1] concerns Streptococcus pneumoniae P1. The test is described as follows: MIC, standard broth micro-dilution assay, SPN P1. How it is done:
(§1) The antibacterial efficacy of the present compounds is illustrated by Table II. The minimal inhibitory concentrations (MICs) were determined using a standard broth micro-dilution assay.

Test [2] concerns Staphylococcus aureus 446. The test is described as follows: MIC, standard broth micro-dilution assay, SA 446. How it is done: as §1
For orientation: Broth dilution looks for growth in wells or tubes with falling amounts of substance.

Test [3] deals with Staphylococcus epidermidis 270. The test can be described thus: MIC, standard broth micro-dilution assay, SE 270. How it is done: as §1
In test [4] the test system is Enterococcus faecium and faecalis (RESISTANT). As to conditions: geometric mean of 4-6 isolates. Here is the method: as §1
The subject of test [5] is Enterococcus faecium and faecalis (SENSITIVE). Conditions: geometric mean of 4-6 isolates. Here is the method:
as §1

The test system of test [6] is Staphylococcus aureus 489. The test can be described thus: MIC, standard broth micro-dilution assay, SA 489. Here is the method:
as §1

Test [7] relates to Staphylococcus aureus 447. The test is described as follows: MIC, standard broth micro-dilution assay, SA 447. Here is the method: as §1
Test [8] relates to Streptococcus pyogenes C203. The test is described as follows: MIC, standard broth micro-dilution assay, SPY C203. Here is the method:
as §1

Test [9] relates to Staphylococcus haemolyticus 415. The test is described as follows: MIC, standard broth micro-dilution assay, SH 415. How it is done: as §1
Test [10] has as its system Staphylococcus haemolyticus 105. The test is described as follows: MIC, standard broth micro-dilution assay, SH 105. Here is the method:
as §1

A value given as a limit tells only on which side of the number the result lay.

With `CC(C)CC(C(=O)NC1C(=O)NC(CC(N)=O)C(=O)NC2C(=O)NC3C(=O)NC(C(=O)NC(C(=O)O)c4cc(O)cc(O)c4-c4cc3ccc4O)C(OC3CC(C)(N)C(O)C(C)O3)c3ccc(c(Cl)c3)Oc3cc2cc(c3OC2OC(CO)C(O)C(O)C2OC2CC(C)(NCc3ccc(Oc4ccccc4)cc3)C(O)C(C)O2)Oc2ccc(cc2Cl)C1O)N(C)C(=S)Nc1ccc(N(C)C)cc1` (stereo not drawn) [Example 19, N^LEU -((p-(DIMETHYLAMINO)-PHENYL)THIOCARBAMOYL)-N^DISACC -(p-PHENOXYBENZYL)A82846B], in [1], the “Minimal Inhibitory Concentration (MIC) SPN P1” value worked out at 2. For the same compound, in [2], the “Minimal Inhibitory Concentration (MIC) SA 446” value turned out to be 2. The “Minimal Inhibitory Concentration (MIC) SE 270” value in [3] stood at 2. Moreover, the “Minimal Inhibitory Concentration (MIC) RESISTANT” value in [4] is 19. In addition, the “Minimal Inhibitory Concentration (MIC) SENSITIVE” value in test [5] stood at 2.6. The “Minimal Inhibitory Concentration (MIC) SA 489” value in test [6] worked out at 2. Besides, the “Minimal Inhibitory Concentration (MIC) SA 447” value in test [7] was found to be 2. Moreover, the “Minimal Inhibitory Concentration (MIC) SPY C203” value in test [8] turned out to be 0.25. For the same compound, the “Minimal Inhibitory Concentration (MIC) SH 415” value in test [9] was 4. Besides, in test [10], the “Minimal Inhibitory Concentration (MIC) SH 105” value was 2.
For `CC(C)CC(C(=O)NC1C(=O)NC(CC(N)=O)C(=O)NC2C(=O)NC3C(=O)NC(C(=O)NC(C(=O)O)c4cc(O)cc(O)c4-c4cc3ccc4O)C(OC3CC(C)(N)C(O)C(C)O3)c3ccc(c(Cl)c3)Oc3cc2cc(c3OC2OC(CO)C(O)C(O)C2OC2CC(C)(NCc3ccc(Oc4ccccc4)cc3)C(O)C(C)O2)Oc2ccc(cc2Cl)C1O)N(C)C(=S)Nc1ccc(OCc2ccccc2)cc1` (stereo not drawn) [Example 20, N^LEU -((p-(BENZYLOXY)PHENYL)-THIOCARBAMOYL)-N^DISACC -(p-PHENOXYBENZYL)A82846B], the “Minimal Inhibitory Concentration (MIC) SPN P1” value in test [1] is reported as 4. Also, in [2], the “Minimal Inhibitory Concentration (MIC) SA 446” value was determined as 4. Besides, the “Minimal Inhibitory Concentration (MIC) SE 270” value in [3] is given as 1. In test [4], the “Minimal Inhibitory Concentration (MIC) RESISTANT” value amounted to 9.5. Moreover, the “Minimal Inhibitory Concentration (MIC) SENSITIVE” value in test [5] was found to be 5.6. Moreover, the “Minimal Inhibitory Concentration (MIC) SA 489” value in test [6] is listed as 2. In addition, the “Minimal Inhibitory Concentration (MIC) SA 447” value in [7] is recorded as 2. Besides, the “Minimal Inhibitory Concentration (MIC) SPY C203” value in test [8] is at most 0.06. Moreover, the “Minimal Inhibitory Concentration (MIC) SH 415” value in test [9] worked out at 2. The “Minimal Inhibitory Concentration (MIC) SH 105” value in [10] is listed as 2.
`CC(C)CC(C(=O)NC1C(=O)NC(CC(N)=O)C(=O)NC2C(=O)NC3C(=O)NC(C(=O)NC(C(=O)O)c4cc(O)cc(O)c4-c4cc3ccc4O)C(OC3CC(C)(N)C(O)C(C)O3)c3ccc(c(Cl)c3)Oc3cc2cc(c3OC2OC(CO)C(O)C(O)C2OC2CC(C)(NCc3ccc(-c4ccc(Cl)cc4)cc3)C(O)C(C)O2)Oc2ccc(cc2Cl)C1O)N(C)C(=S)Nc1ccccc1` (stereo not drawn) [Example 22, N^LEU -(PHENYLTHIOCARBAMOYL)-N^DISACC -(p-(p-CHLOROPHENYL)-BENZYL)A82846B]: in test [1], the “Minimal Inhibitory Concentration (MIC) SPN P1” value was “≤ .06”. Moreover, the “Minimal Inhibitory Concentration (MIC) SA 446” value in [2] worked out at 2. The “Minimal Inhibitory Concentration (MIC) SE 270” value in [3] is given as 0.5. The “Minimal Inhibitory Concentration (MIC) RESISTANT” value in [4] is recorded as 6.7. Further, the “Minimal Inhibitory Concentration (MIC) SENSITIVE” value in test [5] was 2.6. Besides, in [6], the “Minimal Inhibitory Concentration (MIC) SA 489” value is on record as 1. Besides, the “Minimal Inhibitory Concentration (MIC) SA 447” value in test [7] came to 1. Moreover, the “Minimal Inhibitory Concentration (MIC) SPY C203” value in test [8] is given as “≤ .06”. The “Minimal Inhibitory Concentration (MIC) SH 415” value in test [9] is reported as 2. Further, in test [10], the “Minimal Inhibitory Concentration (MIC) SH 105” value was found to be 1.
